Test [1] concerns the target recombinant RORγ Ligand Binding Domain (LBD) protein (Homo sapiens (Human), UniProt P51449). Put plainly: Radio-Ligand RORγ Binding Assay (Assay 1). The following applies: competition with 25-hydroxy[26,27-3H]-cholesterol, SPA; read-out: RORγ Binding Ki Range* (nM) (Assay 1). On the procedure: Radio-Ligand RORγ Binding Assay (Assay 1)
Compounds of the present invention were tested for ability to bind to RORγ in a cell-free competition assay with commercially available radio-ligand (RL), 25-hydroxy[26,27-^3H]-cholesterol (PerkinElmer, Cat. #NET674250UC), for a ligand binding site on a recombinant RORγ Ligand Binding Domain (LBD) protein expressed as a 6×His-Glutathione-S-Transferase (GST) fusion. […] The plate was shaken at 700 rpm for 20 min and incubated for 10 min at rt, after which 40 μL of poly-Lys YSi SPA beads (PerkinElmer, Cat. #RPNQ0010) were added to achieve 50 μg of the beads per well. The plate was incubated on an orbital shaker for 20 min and then for 10 min without agitation at rt. SPA signal for tritium beta radiation was registered on PerkinElmer Microbeta plate reader. […] The percent inhibition vs. concentration data were fit into a four-parameter model, and IC50 values were calculated from the fit as the concentrations corresponding to the inflection points on the dose-response curves. […]

Test [2] addresses full-length RORγt in Jurkat cells (Homo sapiens (Human), UniProt P51449). Put plainly: RORγt 5×RORE Assay in Jurkat Cells (Assay 2). The conditions noted are these: 5xRORE secreted Nanoluc luciferase reporter, 16-18 hrs, read-out: RORγt5X IC50 Range* (nM) (Assay 2). The test is classed as cell-based. The procedure:
[formula] RORγt 5×RORE Assay in Jurkat Cells (Assay 2)
Compounds of the present invention were tested for RORγ inverse agonist activity in a cell-based, transcriptional activity assay. […] (Promega, Cat. #N1021) using KpnI and HindIII restriction sites. […] Tested compounds were added to the cells in the same media (final concentration of DMSO was 0.1% (v/v)), and the plates were incubated at 37° C./5% CO2 for 16-18 hrs. Luciferase activity in the conditioned supernatants was determined with NanoGlo® assay reagents (Promega, Cat.#N1130).

One may read the Ki as a measure of affinity in units of concentration, obtained from inhibition or displacement. Usually IC50 stands for the point on the concentration scale where inhibition reaches its midpoint.

Chain of full-length RORγt in Jurkat cells (P51449 other isoform, or with tags, fused parts or gaps): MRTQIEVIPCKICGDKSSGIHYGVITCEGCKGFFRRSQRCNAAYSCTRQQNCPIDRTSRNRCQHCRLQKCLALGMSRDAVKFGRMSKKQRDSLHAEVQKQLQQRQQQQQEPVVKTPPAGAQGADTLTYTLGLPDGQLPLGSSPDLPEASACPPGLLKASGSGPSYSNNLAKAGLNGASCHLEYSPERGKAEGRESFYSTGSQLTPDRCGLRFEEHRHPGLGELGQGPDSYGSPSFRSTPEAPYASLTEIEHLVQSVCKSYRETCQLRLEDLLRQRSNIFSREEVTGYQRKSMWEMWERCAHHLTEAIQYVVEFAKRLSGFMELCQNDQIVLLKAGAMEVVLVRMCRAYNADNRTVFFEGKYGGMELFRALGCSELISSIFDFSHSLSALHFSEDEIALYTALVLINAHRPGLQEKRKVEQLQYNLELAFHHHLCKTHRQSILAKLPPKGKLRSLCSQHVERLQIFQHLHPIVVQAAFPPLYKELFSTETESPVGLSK
Chain of recombinant RORγ Ligand Binding Domain (LBD) protein (P51449 269-508): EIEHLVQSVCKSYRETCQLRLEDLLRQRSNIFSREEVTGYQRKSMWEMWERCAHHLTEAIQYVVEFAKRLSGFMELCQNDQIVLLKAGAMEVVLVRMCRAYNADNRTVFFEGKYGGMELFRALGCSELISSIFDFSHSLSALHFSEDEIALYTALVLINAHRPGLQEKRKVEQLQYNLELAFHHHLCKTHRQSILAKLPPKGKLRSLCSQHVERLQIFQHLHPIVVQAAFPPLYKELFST

In the case of `CC[C@H]1c2ccc(C(=O)NCc3ccc(S(=O)(=O)NC)cn3)cc2CN1C[C@H]1CC[C@H](C(F)(F)F)CC1` [Compound 23a], the Ki in test [1] was less than 100 nM. Besides, in test [2], the half-inhibitory concentration (IC50) is less than 100 nM.
In the case of `CC[C@@H]1c2ccc(C(=O)NCc3ccc(S(=O)(=O)NC)cn3)cc2CN1C[C@H]1CC[C@H](C(F)(F)F)CC1` [Compound 23b], the Ki in test [1] was less than 100 nM. For the same compound, the IC50 in test [2] was 100 to 1000 nM.
Turning to `CCS(=O)(=O)c1ccc(CNC(=O)c2ccc3c(c2)C(=O)N(Cc2ccc(C(F)(F)F)cc2)C3C(C)C)nc1` (centres unmarked) [Compound 27], the inhibition constant (Ki) in test [1] was less than 100 nM. Further, in test [2], the concentration for half-maximal inhibition (IC50) fell in the range of 100 to 1000 nM.
For `CCS(=O)(=O)c1ccc([C@H](CO)NC(=O)c2ccc3c(c2)C(=O)N(Cc2ccc(C(F)(F)F)cc2)C3C(C)C)cc1` (some centres unmarked) [Compound 28], in that order: less than 100 nM and less than 100 nM.

The record behind these values is US9845308B2, “Isoindoline inhibitors of ROR-gamma” (Vitae Pharmaceuticals, Inc., priority 2014, dated 2017).
